Measurements published in patent publication US11548939B2, “Therapeutic combinations using IGF1R pathway inhibitors, and methods to predict anti-IGF1R therapeutic efficacy” (UNIVERSITY OF PITTSBURGH-OF THE COMMONWEALTH SYSTEM OF …, priority 2018, dated 2023).

Key:
SUM44PE ILC cells = experiment: Synergy measurement (Chou-Talalay combination index), CellTiter Glo viability, 96-well ULA plates, 6 days; settings: for CI: ED75 / CI: ED90: SUM44PE, drug in combination with ICI 182,780, mean ± SEM, 3 independent experiments
Description: SUM44PE ILC cells were plated into 96-well ULA plates and treated for 6 days with increasing doses of OSI-906 (FIG. 10A, 10B), BMS-754807 (FIG. 10C, 10D), or BEZ235 (FIG. 10E, 10F) in combination with increasing doses of ICI 182,780. The dose response curves (FIG. 10A, 10C, 10E) and heat maps (FIG. 10B, 10D, 10F) shown indicate inhibition of cell viability (CellTiter Glo).
For synergy experiments, SUM44PE and MDA-MB-134 cells were plated in 96-well ULA plates (18,000 cells/well) in 100 μl of media/well. […] Synergy was calculated using the Median-Effect Principle and Combination Index-Isobologram Theorem (Chou-Talalay)^27. Combination index values for ED50, ED75, ED90 are shown as a mean±SEM from n=3 independent experiments.
Synergy was measured using the Median-Effect Principle and Combination-Index Isoblogram Theorem. […] Values are shown +/−SEM from 3 independent experiments each with n=2 biological replicates. CI values <1 indicate a synergistic drug interaction.

[1] = test system: MDA-MB-134 (MM134) ILC cells; experiment: as above; settings: for CI: ED75 / CI: ED90: MM134, drug in combination with ICI 182,780, mean ± SEM, 3 independent experiments
Description: MDA-MB-134 ILC cells were plated into 96-well ULA plates and treated for 6 days with increasing doses of OSI-906 (FIG. 11A, 11B), BMS-754807 (FIGS. 11C, 11D), or BEZ235 (FIGS. 11E, 11F) in combination with increasing doses of ICI 182,780. The dose response curves (FIGS. 11A, 11C, 11E) and heat maps (FIGS. 11B, 11D, 11F) shown indicate inhibition of cell viability (CellTiter Glo). Representative experiment shown; n=3 each with 2 biological replicates per combination of doses.
Plates (2D and ultra-low attachment [ULA; Corning #3474]) were collected on day 6 and viability was measured using CellTiter Glo Viability assay (Promega #G7572). […] For synergy experiments, SUM44PE and MDA-MB-134 cells were plated in 96-well ULA plates (18,000 cells/well) in 100 μl of media/well. […] Synergy was calculated using the Median-Effect Principle and Combination Index-Isobologram Theorem (Chou-Talalay)^27. Combination index values for ED50, ED75, ED90 are shown as a mean±SEM from n=3 independent experiments.
Synergy was measured using the Median-Effect Principle and Combination-Index Isoblogram Theorem. […] Values are shown +/−SEM from 3 independent experiments each with n=2 biological replicates.

MM134 xenograft tumor = experiment: ILC xenograft tumor ex vivo explant culture, Ki67 staining; type: cell-based, human; settings: 1 μM, 72 hours, vehicle 47%, p=0.002
Description: (§1) FIGS. 12A, 12B, 12C, 12D, 12E and 12F show IGF1R inhibition reduces Ki67 staining in ILC tumor ex vivo culture. MM134 (FIGS. 12A, 12B, and 12C) and BCK4 (FIGS. 12D, 12E, and 12F) xenograft tumors were harvested from immunocompromised mice, minced into 1-2 mm^3 tumor chunks and then plated on gelatin sponges in 12-well plate containing 1.5 mL media. Media was treated with DMSO Vhc (FIGS. 12A and 12D) or 1 μM […] (FIGS. 12B and 12E) for 72 hours. Tumor pieces were harvested by FFPE and stained for Ki67 as a marker of proliferation. Staining was quantified for MM134 (FIG. 12C) and BCK4 (FIG. 12F) cells by counting all clearly defined nuclei in 20× images. Statistical difference was assessed using a Student's t-test (p<0.05; n=3-6). […] Nuclei were quantified by counting all clearly defined nuclei within each tissue section (n=3-6). […]

MCF-7 cells = experiment: Dose response growth assay (CellTiter Glo) in cells transfected with SCR or CDH1 siRNA; type: cell-based; settings: 6 days
Source text: The CellTiter Glo assay was used to assess cell viability (relative luminescence).
CellTiter Glo assay was used to assess cell viability (relative luminescence).

BCK4 xenograft tumor = experiment: ILC xenograft tumor ex vivo explant culture, Ki67 staining; type: cell-based; settings: 1 μM, 72 hours, vehicle 25%, p=0.005
Description: as §1

ZR75.1 cells = experiment: Dose response growth assay (CellTiter Glo) in cells transfected with SCR or CDH1 siRNA; type: cell-based; settings: 6 days
Source text: FIGS. 5A and 5B show knockdown of E-cadherin increases sensitivity to IGF1R inhibition in breast cancer cells. ZR75.1 cells were reverse transfected with SCR or CDH1 siRNA and seeded into 96-well 2D (FIG. 5A) or ULA (FIG. 5B) plates and treated with OSI-906 for 6 days. CellTiter Glo assay was used to assess cell viability (relative luminescence).

Compound	CI: ED75 (SUM44PE ILC cells)	CI: ED90 (SUM44PE ILC cells)	CI: ED75 [1]	CI: ED90 [1]	Ki67 positive nuclei (MM134 xenograft tumor) [%]	CI: ED75 (SUM44PE ILC cells; listed as BMS)	CI: ED90 (SUM44PE ILC cells; listed as BMS)	viability of siCDH1 cells compared to siSCR cells in response to treatment (MCF-7 cells; 2D growth condition)	viability of siCDH1 cells compared to siSCR cells in response to treatment (MCF-7 cells; ULA growth condition)	Ki67 positive nuclei (BCK4 xenograft tumor) [%]	minimum dose reduction index (DRI) for ICI (SUM44PE ILC cells; SUM44PE cells, all drug combinations (OSI, BMS, BEZ), at the EC50) [fold]	minimum dose reduction index (DRI) for ICI ([1]; MM134 cells, all drug combinations (OSI, BMS, BEZ), at the EC50) [fold]	difference in EC50 between siSCR and siCDH1 cells (MCF-7 cells; 2D and ULA (FIG. 6))	viability of siCDH1 cells compared to siSCR cells in response to treatment (ZR75.1 cells; 2D growth condition)	viability of siCDH1 cells compared to siSCR cells in response to treatment (ZR75.1 cells; ULA growth condition)
Cn1c(=O)n(-c2ccc(C(C)(C)C#N)cc2)c2c3cc(-c4cnc5ccccc5c4)ccc3ncc21 [BEZ235, 4-[2,3-dihydro-3-methyl-2-oxo-8-(3-quinolinyl)-1H-imidazo[4,5-c]quinolin-1-yl]-α,α-dimethyl-benzeneacetonitrile]	0.401 ± 0.12	0.425 ± 0.12	0.547 ± 0.13	2.885 ± 1.34											
C[C@@]1(C(=O)Nc2ccc(F)nc2)CCCN1c1nc(Nc2cc(C3CC3)[nH]n2)c2cccn2n1 [BMS-754807, (2S)-1-[4-[(5-Cyclopropyl-1H-pyrazol-3-yl)amino]pyrrolo[2,1-f][1,2,4]triazin-2-yl]-N-(6-fluoro-3-pyridinyl)-2-methyl-2-Pyrrolidinecarboxamide]	0.081 ± 0.04	0.099 ± 0.04	0.230 ± 0.04	0.667 ± 0.15	22	0.081	0.099	no significant difference	decreased viability	11					
C[C@]12CC[C@@H]3c4ccc(O)cc4C[C@@H](CCCCCCCCC[S+]([O-])CCCC(F)(F)C(F)(F)F)[C@H]3[C@@H]1CC[C@@H]2O (stereo partly drawn) [ICI 182,780, 7α,17β-[9-[(4,4,5,5,5-Pentafluoropentyl)sulfinyl]nonyl]estra-1,3,5(10)-triene-3,17-diol]											≥ 8	≥ 2	no statistical difference in EC50		
C[C@]1(O)C[C@@H](c2nc(-c3ccc4ccc(-c5ccccc5)nc4c3)c3c(N)nccn32)C1 [OSI-906, cis-3-[8-amino-1-(2-phenyl-7-quinolinyl)imidazo[1,5-a]pyrazin-3-yl]-1-methyl-cyclobutanol]	0.250 ± 0.10	0.398 ± 0.22	0.449 ± 0.18	0.808 ± 0.48				significantly decreased viability	significantly decreased viability					not in the 2D growth condition	significantly decreased viability
